Columns and labels:
Assay in all cases: relative viability (nuclei count vs DMSO), 5 days (fraction); higher = more cells survive
VX-702 + Foretinib = compound: NC(=O)c1ccc(N(C(N)=O)c2c(F)cccc2F)nc1-c1ccc(F)cc1F [VX-702] + COc1cc2c(Oc3ccc(NC(=O)C4(C(=O)Nc5ccc(F)cc5)CC4)cc3F)ccnc2cc1OCCCN1CCOCC1 [Foretinib] (partner 0.25 µM)
Procedure, shortened: (§1)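 The day after seeding in 1536-well plates, lung cancer cell lines were treated by pin tool with a single drug, or with a fixed anchor-drug dose together with five library-drug doses (not always all listed) in √10 steps. After 5 days, a combined fix-and-stain solution (final 0.05% Triton X-100, 1% formaldehyde, 1 ug/ml Hoechst) was added. Nuclei counted on 4× images gave relative viability as treated counts over vehicle counts, reported as the median of duplicate plates.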

Dabrafenib + Alpelisib = compound: CC(C)(C)c1nc(-c2cccc(NS(=O)(=O)c3c(F)cccc3F)c2F)c(-c2ccnc(N)n2)s1 [Dabrafenib] + Cc1nc(NC(=O)N2CCC[C@H]2C(N)=O)sc1-c1ccnc(C(C)(C)C(F)(F)F)c1 [Alpelisib] (partner 2 µM)
Procedure, shortened: as §1

Dabrafenib + Dasatinib = compound: CC(C)(C)c1nc(-c2cccc(NS(=O)(=O)c3c(F)cccc3F)c2F)c(-c2ccnc(N)n2)s1 [Dabrafenib] + Cc1nc(Nc2ncc(C(=O)Nc3c(C)cccc3Cl)s2)cc(N2CCN(CCO)CC2)n1 [Dasatinib] (partner 0.075 µM)
Procedure, shortened: as §1

VX-702 + Phenformin = compound: NC(=O)c1ccc(N(C(N)=O)c2c(F)cccc2F)nc1-c1ccc(F)cc1F [VX-702] + N=C(N)NC(=N)NCCc1ccccc1 [Phenformin] (partner 250 µM)
Procedure, shortened: as §1

Row | Cell Line | relative viability (VX-702 + Foretinib; first compound 0.02 µM) | relative viability (VX-702 + Foretinib; first compound 0.2 µM) | relative viability (VX-702 + Foretinib; first compound 0.6325 µM) | relative viability (VX-702 + Foretinib; first compound 2 µM) | relative viability (Dabrafenib + Alpelisib; first compound 0.003 µM) | relative viability (Dabrafenib + Alpelisib; first compound 0.009487 µM) | relative viability (Dabrafenib + Alpelisib; first compound 0.03 µM) | relative viability (Dabrafenib + Alpelisib; first compound 0.09487 µM) | relative viability (Dabrafenib + Alpelisib; first compound 0.3 µM) | relative viability (Dabrafenib + Dasatinib; first compound 0.003 µM) | relative viability (Dabrafenib + Dasatinib; first compound 0.009487 µM) | relative viability (Dabrafenib + Dasatinib; first compound 0.03 µM) | relative viability (Dabrafenib + Dasatinib; first compound 0.09487 µM) | relative viability (Dabrafenib + Dasatinib; first compound 0.3 µM) | relative viability (VX-702 + Phenformin; first compound 0.02 µM) | relative viability (VX-702 + Phenformin; first compound 0.2 µM) | relative viability (VX-702 + Phenformin; first compound 0.6325 µM) | relative viability (VX-702 + Phenformin; first compound 2 µM)
1 | EMC-BAC-2 | 0.597 | 0.93 | 0.999 | 1.06 | 0.744 | 0.746 | 0.574 | 0.666 | 0.784 | 0.327 | 0.319 | 0.317 | 0.246 | 0.295 | 0.522 | 0.549 | 0.526 | 0.402
2 | HCC-78 | 0.523 | 0.527 | 0.59 | 0.479 | – | 0.445 | 0.346 | 0.305 | 0.332 | – | 0.492 | 0.483 | 0.251 | 0.408 | 0.63 | 0.823 | 0.689 | 0.676
3 | NCI-H2085 | 1.05 | 0.898 | 0.967 | 0.968 | 0.949 | 1.02 | 0.93 | 0.997 | 0.954 | 0.246 | 0.28 | 0.216 | 0.288 | 0.188 | 0.718 | 0.728 | 0.704 | 0.702
4 | NCI-H441 | 0.955 | 0.774 | 0.984 | 1.12 | – | 0.915 | 0.817 | 0.677 | 0.692 | – | 0.623 | 0.689 | 0.55 | 0.456 | 0.829 | 0.992 | 0.687 | 0.918
5 | NCI-H1975 | 0.969 | 0.915 | 0.943 | 1.09 | 0.68 | 0.687 | 0.635 | 0.624 | 0.535 | 0.372 | 0.345 | 0.363 | 0.344 | 0.392 | 0.432 | 0.413 | 0.413 | 0.418
6 | COR-L23 | 1.04 | 1 | 0.995 | 1.38 | 0.715 | 0.784 | 0.713 | 0.678 | 0.85 | 0.448 | 0.441 | 0.555 | 0.455 | 0.425 | 0.484 | 0.492 | 0.437 | 0.494
7 | NCI-H460 | 1.06 | 0.998 | 1.12 | 1.08 | 0.508 | 0.599 | 0.394 | 0.567 | 0.592 | 0.43 | 0.529 | 0.615 | 0.509 | 0.571 | 0.532 | 0.551 | 0.608 | 0.373
8 | NCI-H838 | 1.02 | 1.01 | 1.13 | 1.2 | 1.01 | 1.07 | 0.861 | 0.93 | 1.15 | 0.254 | 0.287 | – | 0.364 | 0.279 | 0.607 | 0.609 | 0.557 | 0.669
9 | NCI-H2087 | 1.18 | 0.915 | 1.12 | 1.23 | 1.19 | 1.12 | 1.11 | 0.823 | 0.831 | – | 0.894 | 0.798 | 0.519 | 0.657 | 0.481 | 0.445 | 0.422 | 0.528
